This is an account of results in ChEMBL document CHEMBL1201862, “PubChem BioAssay data set” (2004).

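Step 1: Grow cells in 96-well plates. Step 2: Expose to compound for 48 hours at 5 concentrations. Step 3: Interpolate endpoints linearly; if unreached, use highest concentration. GI50 is the concentration that inhibits growth by half.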 Activity calls are given as the source filed them. Rule as the data show it: active = GI50 up to about 1.1 µM and inactive = higher.

What all share (test): inhibition of tumour cell growth, NCI panel, 48 h
The subject of experiment [1] is TK-10.
Experiment [2] deals with SF-268.
Experiment [3] relates to SNB-19.
Experiment [4] deals with EKVX.
For experiment [5], the system named is CCRF-CEM.
The test system of experiment [6] is OVCAR-4.
The test system of experiment [7] is T47D.
Experiment [8] concerns UACC-257.
Experiment [9] concerns NCI-H522.
Experiment [10] relates to K562.
The subject of experiment [11] is RXF 393.
In experiment [12] the test system is IGROV-1.
Experiment [13] deals with OVCAR-5.
For experiment [14], the system named is HCT-15.
The test system of experiment [15] is HL-60.
In experiment [16] the test system is RPMI-8226.
Experiment [17] concerns M14.
For experiment [18], the system named is HOP-62.
For experiment [19], the system named is DU-145.
In experiment [20] the test system is KM12.

In the case of `Nc1c(C(=O)Nc2ccc([As](=O)(O)O)cc2)cnc2nnnn12`, the GI50 in [1], in [2], in experiment [3], in experiment [4], in experiment [5] and in experiment [6] was > 100 µM (inactive) in each case. Also, the GI50 in [7], in experiment [8], in experiment [9], in [10], in [11] and in experiment [12] was > 100 µM (inactive) in each case. For the same molecule, the GI50 was > 100 µM (inactive) in experiment [13]; above 100 µM in experiment [14]; > 100 µM (inactive) in [15]; > 100 µM (inactive) in experiment [16]; > 100 µM (inactive) in experiment [17]; > 100 µM (inactive) in experiment [18]. For the same molecule, the GI50 in experiment [19] and in experiment [20] was > 100 µM (inactive) each time.
On to `N#CC(C#N)=Cc1c[nH]c(=O)[nH]c1=O`, for which the GI50 was > 100 µM (inactive) in [1]; > 100 µM (inactive) in [2]; > 100 µM (inactive) in experiment [3]; > 100 µM (inactive) in experiment [4]; 17.8 µM (inactive) in [5]; > 100 µM (inactive) in experiment [6]. Moreover, the GI50 is > 100 µM (inactive) in experiment [7]; > 100 µM (inactive) in experiment [8]; 41 µM (inactive) in experiment [9]; > 100 µM (inactive) in [10]; > 100 µM (inactive) in experiment [11]; > 100 µM (inactive) in experiment [12]. The GI50 was > 100 µM (inactive) in experiment [13]; above 100 µM in experiment [14]; > 100 µM (inactive) in experiment [15]; > 100 µM (inactive) in experiment [16]; > 100 µM (inactive) in [17]; > 100 µM (inactive) in [18]. The GI50 in experiment [19] and in experiment [20] was > 100 µM (inactive) in each case.
Turning to `COc1ccc(OC)c(C(=O)/C=C/c2cc(O)c(O)cc2F)c1`, the GI50 in [1] is 6.58 µM (inactive); in experiment [2], 0.643 µM (active); in [3], 0.619 µM (active); in [4] it was 8.04 µM (inactive); in experiment [5], 0.41 µM (active); in experiment [6] it was 2.29 µM (inactive). Moreover, the GI50 is 5.85 µM (inactive) in [7]; 3.1 µM (inactive) in experiment [8]; 0.272 µM (active) in experiment [9]; 0.356 µM (active) in experiment [10]; 1.37 µM (inactive) in [11]; 1.61 µM (inactive) in experiment [12]. The GI50 in experiment [13] is 13 µM (inactive); in [14], 0.076 µM; in experiment [15] it was 0.0361 µM (active); in [16], 0.678 µM (active); in experiment [17] it was 0.638 µM (active); in [18], 1.05 µM (active). The GI50 is 0.817 µM (active) in experiment [19] and 0.474 µM (active) in [20].
For the molecule `C#CCNC(Cc1c[nH]cn1)C(=O)O` (stereo not given), the GI50 in [1], in experiment [2], in experiment [3], in experiment [4], in experiment [5] and in experiment [6] was > 100 µM (inactive) each time. Further, the GI50 in [7], in experiment [8], in experiment [9], in [10], in experiment [11] and in experiment [12] was > 100 µM (inactive) in each case. For the same molecule, the GI50 was > 100 µM (inactive) in [13]; above 100 µM in experiment [14]; 89.3 µM (inactive) in experiment [15]; > 100 µM (inactive) in experiment [16]; > 100 µM (inactive) in experiment [17]; > 100 µM (inactive) in experiment [18]. Moreover, the GI50 in experiment [19] and in [20] was > 100 µM (inactive) throughout.
`CC(C)(C)[Si](C)(C)OCCOCn1cc(F)c(=O)[nH]c1=O`: the GI50 in experiment [1], in experiment [2], in experiment [3], in experiment [4], in experiment [5] and in [6] was > 100 µM (inactive) throughout. The GI50 in experiment [7] is 69 µM (inactive); in experiment [8] it was > 100 µM (inactive); in [9] it was > 100 µM (inactive); in experiment [10], > 100 µM (inactive); in [11] it was > 100 µM (inactive); in experiment [12], > 100 µM (inactive). The GI50 in experiment [13] was > 100 µM (inactive); in experiment [14], above 100 µM; in experiment [15], > 100 µM (inactive); in experiment [16] it was > 100 µM (inactive); in [17], > 100 µM (inactive); in [18], > 100 µM (inactive). Besides, the GI50 in experiment [19] is 36.5 µM (inactive); in [20] it was > 100 µM (inactive).
Consider `CN(C)c1ccc(C2ON=C(c3ccccc3)N2C23CC4CC(CC(C4)C2)C3)cc1` (stereo not given), for which the GI50 in experiment [1], in experiment [2], in experiment [3], in experiment [4], in experiment [5] and in experiment [6] was > 10 µM (inactive) throughout. Also, the GI50 in [7] is > 10 µM (inactive); in experiment [8] it was > 10 µM (inactive); in [9], > 10 µM (inactive); in [10], 9.12 µM (inactive); in experiment [11] it was > 10 µM (inactive); in [12], > 10 µM (inactive). Besides, the GI50 is > 10 µM (inactive) in [13]; above 10 µM in [14]; 9.55 µM (inactive) in experiment [15]; > 10 µM (inactive) in [16]; > 10 µM (inactive) in experiment [17]; > 10 µM (inactive) in experiment [18]. The GI50 in [19] and in experiment [20] was > 10 µM (inactive) each time.
Turning to `O=c1[nH]nc(Cc2ccccc2)n1/N=C/c1cccnc1`, the GI50 in experiment [1], in experiment [2], in experiment [3], in experiment [4], in experiment [5] and in experiment [6] was > 100 µM (inactive) in each case. Further, the GI50 in [7], in experiment [8], in experiment [9], in experiment [10], in [11] and in experiment [12] was > 100 µM (inactive) in each case. For the same molecule, the GI50 in experiment [13] is > 100 µM (inactive); in [14], above 100 µM; in experiment [15], > 100 µM (inactive); in experiment [16] it was > 100 µM (inactive); in experiment [17] it was > 100 µM (inactive); in experiment [18] it was > 100 µM (inactive). Moreover, the GI50 is > 100 µM (inactive) in [19] and 27.3 µM (inactive) in experiment [20].
Regarding `COc1cc2c(cc1OC)C1(c3ccccc3)CN(C2)Cc2cc(OC)c(OC)cc21`, the GI50 in experiment [1] was 44.7 µM (inactive); in experiment [2] it was 49.9 µM (inactive); in experiment [3] it was 44.5 µM (inactive); in experiment [4] it was 55.5 µM (inactive); in experiment [5], 15.6 µM (inactive); in [6] it was 23.3 µM (inactive). Further, the GI50 in [7] was 35.6 µM (inactive); in experiment [8], 40.2 µM (inactive); in experiment [9], 26.2 µM (inactive); in experiment [10], 29.1 µM (inactive); in experiment [11], 22.8 µM (inactive); in experiment [12] it was 35.2 µM (inactive). Also, the GI50 was 35.6 µM (inactive) in experiment [13]; 24.3 µM in experiment [14]; 19.3 µM (inactive) in [15]; 26 µM (inactive) in experiment [16]; 23.9 µM (inactive) in experiment [17]; 40.6 µM (inactive) in [18]. Further, the GI50 in experiment [19] is 33.7 µM (inactive); in [20], 30.8 µM (inactive).
For the molecule `Cc1ccc([S+]([O-])C[C@](NC(=O)OCc2ccccc2)(Sc2ccccc2)C(F)F)cc1` (stereo not given in full), the GI50 in [1] was 20.3 µM (inactive); in experiment [2] it was 16.9 µM (inactive); in [3], 14.4 µM (inactive); in experiment [4] it was 13.7 µM (inactive); in experiment [5], 1.11 µM (active); in experiment [6], 13.2 µM (inactive). Further, the GI50 in experiment [7] is 10.5 µM (inactive); in experiment [8], 15 µM (inactive); in experiment [9] it was 7.13 µM (inactive); in experiment [10] it was 10.2 µM (inactive); in experiment [11], 21.7 µM (inactive); in experiment [12], 8.69 µM (inactive). In addition, the GI50 in experiment [13] is 31.6 µM (inactive); in [14], 17.1 µM; in experiment [15], 4.12 µM (inactive); in [16], 10.4 µM (inactive); in [17], 33.3 µM (inactive); in experiment [18], 35.8 µM (inactive). Further, the values for the GI50 in [19] and in [20] were 18.7 µM (inactive) and 14.6 µM (inactive), respectively.
With `CCCCCCc1ccc(C(=O)NO)cc1`, the GI50 is 51.5 µM (inactive) in [1]; 25.3 µM (inactive) in experiment [2]; 45.3 µM (inactive) in experiment [3]; 37.8 µM (inactive) in experiment [4]; 6.92 µM (inactive) in experiment [5]; 20.4 µM (inactive) in [6]. For the same molecule, the GI50 is 19.5 µM (inactive) in [7]; 44.7 µM (inactive) in [8]; 11.3 µM (inactive) in [9]; 24.5 µM (inactive) in experiment [10]; 41.2 µM (inactive) in experiment [11]; 24.5 µM (inactive) in [12]. Also, the GI50 in experiment [13] was 75 µM (inactive); in [14], 12.6 µM; in experiment [15], 16.5 µM (inactive); in experiment [16] it was 12.6 µM (inactive); in experiment [17] it was 35.1 µM (inactive); in experiment [18], 34.2 µM (inactive). Besides, the GI50 in experiment [19] was 24.8 µM (inactive); in experiment [20] it was 44.9 µM (inactive).
